In ChEMBL document CHEMBL5584255, “Synthesis and antibacterial medicinal evaluation of carbothioamido hydrazonyl thiazolylquinolone with multitargeting antimicrobial potential to combat increasingly global resistance” (Eur J Med Chem, 2024):
Values after ≈ are worked out from the molar mass of the structure shown.

Tests used:
Format in all cases: functional
Staphylococcus aureus [1] = assay: Antibacterial activity against Staphylococcus aureus ATCC 25923 by microbroth dilution method
Staphylococcus aureus [2] = assay: Antibacterial activity against Staphylococcus aureus ATCC 29213 by microbroth dilution method
Staphylococcus aureus [3] = assay: Antibacterial activity against drug-resistant Staphylococcus aureus by microbroth dilution method
Staphylococcus aureus [4] = assay: Antibacterial activity against methicillin-resistant Staphylococcus aureus N315 by microbroth dilution method
Enterococcus faecalis = assay: Antibacterial activity against drug-resistant Enterococcus faecalis by microbroth dilution method
Candida albicans [5] = assay: Antifungal activity against Candida albicans ATCC 90023
Candida albicans [6] = assay: Antifungal activity against drug-resistant Candida albicans
Candida parapsilosis = assay: Antifungal activity against Candida parapsilosis ATCC 22019; conditions: Lodderomyces parapsilosis
Candida tropicalis = assay: Antifungal activity against drug-resistant Candida tropicalis
Aspergillus fumigatus = assay: Antifungal activity against Aspergillus fumigatus
Escherichia coli [7] = assay: Antibacterial activity against Escherichia coli ATCC 25922 by microbroth dilution method
Pseudomonas aeruginosa [8] = assay: Antibacterial activity against Pseudomonas aeruginosa ATCC 27853 by microbroth dilution method
Escherichia coli [9] = assay: Antibacterial activity against drug-resistant Escherichia coli by microbroth dilution method
Pseudomonas aeruginosa [10] = assay: Antibacterial activity against Pseudomonas aeruginosa by microbroth dilution method
Klebsiella pneumoniae = assay: Antibacterial activity against Klebsiella pneumoniae by microbroth dilution method
Acinetobacter baumannii = assay: Antibacterial activity against Acinetobacter baumannii by microbroth dilution method

## CCOC(=O)c1cn(C/C(C)=N/NC(N)=S)c2cc(F)c(F)cc2c1=O
Staphylococcus aureus [1]
  MIC: 670 µM (≈ 256 µg/mL)
Staphylococcus aureus [2]
  MIC: 335 µM (≈ 128 µg/mL)
Staphylococcus aureus [3]
  MIC: 670 µM (≈ 256 µg/mL)
Staphylococcus aureus [4]
  MIC: 1340 µM (≈ 512 µg/mL)
Enterococcus faecalis
  MIC: 335 µM (≈ 128 µg/mL)
Candida albicans [5]
  MIC: 670 µM (≈ 256 µg/mL)
Candida albicans [6]
  MIC: 1340 µM (≈ 512 µg/mL)
Candida parapsilosis
  MIC: 335 µM (≈ 128 µg/mL)
Candida tropicalis
  MIC: 670 µM (≈ 256 µg/mL)
Aspergillus fumigatus
  MIC: 670 µM (≈ 256 µg/mL)
Escherichia coli [7]
  MIC: 670 µM (≈ 256 µg/mL)
Pseudomonas aeruginosa [8]
  MIC: 335 µM (≈ 128 µg/mL)
Escherichia coli [9]
  MIC: 670 µM (≈ 256 µg/mL)
Pseudomonas aeruginosa [10]
  MIC: 670 µM (≈ 256 µg/mL)
Klebsiella pneumoniae
  MIC: 670 µM (≈ 256 µg/mL)
Acinetobacter baumannii
  MIC: 335 µM (≈ 128 µg/mL)

## Nc1nc(Cn2cc(-c3csc(N)n3)c(=O)c3cc(F)c(Cl)cc32)cs1
Staphylococcus aureus [1]
  MIC: 39 µM (≈ 15.9 µg/mL)
Staphylococcus aureus [2]
  MIC: 20 µM (≈ 8.16 µg/mL)
Staphylococcus aureus [3]
  MIC: 39 µM (≈ 15.9 µg/mL)
Staphylococcus aureus [4]
  MIC: 315 µM (≈ 128 µg/mL)
Enterococcus faecalis
  MIC: 315 µM (≈ 128 µg/mL)
Candida albicans [5]
  MIC: 39 µM (≈ 15.9 µg/mL)
Candida albicans [6]
  MIC: 157 µM (≈ 64 µg/mL)
Candida parapsilosis
  MIC: 79 µM (≈ 32.2 µg/mL)
Candida tropicalis
  MIC: 315 µM (≈ 128 µg/mL)
Aspergillus fumigatus
  MIC: 315 µM (≈ 128 µg/mL)
Escherichia coli [7]
  MIC: 20 µM (≈ 8.16 µg/mL)
Pseudomonas aeruginosa [8]
  MIC: 39 µM (≈ 15.9 µg/mL)
Escherichia coli [9]
  MIC: 157 µM (≈ 64 µg/mL)
Pseudomonas aeruginosa [10]
  MIC: 157 µM (≈ 64 µg/mL)
Klebsiella pneumoniae
  MIC: 315 µM (≈ 128 µg/mL)
Acinetobacter baumannii
  MIC: 157 µM (≈ 64 µg/mL)

## Cc1nc(-c2c[nH]c3c(F)cc(F)cc3c2=O)cs1
Staphylococcus aureus [1]
  MIC: 460 µM (≈ 128 µg/mL)
Staphylococcus aureus [2]
  MIC: 460 µM (≈ 128 µg/mL)
Staphylococcus aureus [3]
  MIC: 921 µM (≈ 256 µg/mL)
Staphylococcus aureus [4]
  MIC: 460 µM (≈ 128 µg/mL)
Enterococcus faecalis
  MIC: 460 µM (≈ 128 µg/mL)
Candida albicans [5]
  MIC: 460 µM (≈ 128 µg/mL)
Candida albicans [6]
  MIC: 1840 µM (≈ 513 µg/mL)
Candida parapsilosis
  MIC: 921 µM (≈ 256 µg/mL)
Candida tropicalis
  MIC: 921 µM (≈ 256 µg/mL)
Aspergillus fumigatus
  MIC: 921 µM (≈ 256 µg/mL)
Escherichia coli [7]
  MIC: 921 µM (≈ 256 µg/mL)
Pseudomonas aeruginosa [8]
  MIC: 1840 µM (≈ 513 µg/mL)
Escherichia coli [9]
  MIC: 1840 µM (≈ 513 µg/mL)
Pseudomonas aeruginosa [10]
  MIC: 1840 µM (≈ 513 µg/mL)
Klebsiella pneumoniae
  MIC: 460 µM (≈ 128 µg/mL)
Acinetobacter baumannii
  MIC: 921 µM (≈ 256 µg/mL)

## CC(=O)Cn1cc(-c2csc(C)n2)c(=O)c2cccc(F)c21
Staphylococcus aureus [1]
  MIC: 405 µM (≈ 128 µg/mL)
Staphylococcus aureus [2]
  MIC: 810 µM (≈ 256 µg/mL)
Staphylococcus aureus [3]
  MIC: 810 µM (≈ 256 µg/mL)
Staphylococcus aureus [4]
  MIC: 810 µM (≈ 256 µg/mL)
Enterococcus faecalis
  MIC: 810 µM (≈ 256 µg/mL)
Candida albicans [5]
  MIC: 810 µM (≈ 256 µg/mL)
Candida albicans [6]
  MIC: 810 µM (≈ 256 µg/mL)
Candida parapsilosis
  MIC: 405 µM (≈ 128 µg/mL)
Candida tropicalis
  MIC: 405 µM (≈ 128 µg/mL)
Aspergillus fumigatus
  MIC: 1620 µM (≈ 512 µg/mL)
Escherichia coli [7]
  MIC: 810 µM (≈ 256 µg/mL)
Pseudomonas aeruginosa [8]
  MIC: 405 µM (≈ 128 µg/mL)
Escherichia coli [9]
  MIC: 810 µM (≈ 256 µg/mL)
Pseudomonas aeruginosa [10]
  MIC: 1620 µM (≈ 512 µg/mL)
Klebsiella pneumoniae
  MIC: 1620 µM (≈ 512 µg/mL)
Acinetobacter baumannii
  MIC: 405 µM (≈ 128 µg/mL)

## C/C(Cn1cc(-c2csc(N)n2)c(=O)c2cccc(F)c21)=N\NC(N)=S
Staphylococcus aureus [1]
  MIC: 41 µM (≈ 16 µg/mL)
Staphylococcus aureus [2]
  MIC: 21 µM (≈ 8.2 µg/mL)
Staphylococcus aureus [3]
  MIC: 21 µM (≈ 8.2 µg/mL)
Staphylococcus aureus [4]
  MIC: 41 µM (≈ 16 µg/mL)
Enterococcus faecalis
  MIC: 328 µM (≈ 128 µg/mL)
Candida albicans [5]
  MIC: 328 µM (≈ 128 µg/mL)
Candida albicans [6]
  MIC: 656 µM (≈ 256 µg/mL)
Candida parapsilosis
  MIC: 656 µM (≈ 256 µg/mL)
Candida tropicalis
  MIC: 656 µM (≈ 256 µg/mL)
Aspergillus fumigatus
  MIC: 1310 µM (≈ 513 µg/mL)
Escherichia coli [7]
  MIC: 328 µM (≈ 128 µg/mL)
Pseudomonas aeruginosa [8]
  MIC: 328 µM (≈ 128 µg/mL)
Escherichia coli [9]
  MIC: 656 µM (≈ 256 µg/mL)
Pseudomonas aeruginosa [10]
  MIC: 656 µM (≈ 256 µg/mL)
Klebsiella pneumoniae
  MIC: 328 µM (≈ 128 µg/mL)
Acinetobacter baumannii
  MIC: 656 µM (≈ 256 µg/mL)

## CC(=O)Cn1cc(-c2csc(N)n2)c(=O)c2cc(F)c(Cl)cc21
Staphylococcus aureus [1]
  MIC: 182 µM (≈ 64 µg/mL)
Staphylococcus aureus [2]
  MIC: 365 µM (≈ 128 µg/mL)
Staphylococcus aureus [3]
  MIC: 182 µM (≈ 64 µg/mL)
Staphylococcus aureus [4]
  MIC: 365 µM (≈ 128 µg/mL)
Enterococcus faecalis
  MIC: 365 µM (≈ 128 µg/mL)
Candida albicans [5]
  MIC: 91 µM (≈ 32 µg/mL)
Candida albicans [6]
  MIC: 91 µM (≈ 32 µg/mL)
Candida parapsilosis
  MIC: 182 µM (≈ 64 µg/mL)
Candida tropicalis
  MIC: 365 µM (≈ 128 µg/mL)
Aspergillus fumigatus
  MIC: 365 µM (≈ 128 µg/mL)
Escherichia coli [7]
  MIC: 182 µM (≈ 64 µg/mL)
Pseudomonas aeruginosa [8]
  MIC: 91 µM (≈ 32 µg/mL)
Escherichia coli [9]
  MIC: 729 µM (≈ 256 µg/mL)
Pseudomonas aeruginosa [10]
  MIC: 91 µM (≈ 32 µg/mL)
Klebsiella pneumoniae
  MIC: 729 µM (≈ 256 µg/mL)
Acinetobacter baumannii
  MIC: 365 µM (≈ 128 µg/mL)

## C/C(Cn1cc(-c2csc(C)n2)c(=O)c2cc(F)ccc21)=N\NC(N)=S
Staphylococcus aureus [1]
  MIC: 658 µM (≈ 256 µg/mL)
Staphylococcus aureus [2]
  MIC: 658 µM (≈ 256 µg/mL)
Staphylococcus aureus [3]
  MIC: 658 µM (≈ 256 µg/mL)
Staphylococcus aureus [4]
  MIC: 658 µM (≈ 256 µg/mL)
Enterococcus faecalis
  MIC: 1320 µM (≈ 513 µg/mL)
Candida albicans [5]
  MIC: 658 µM (≈ 256 µg/mL)
Candida albicans [6]
  MIC: 658 µM (≈ 256 µg/mL)
Candida parapsilosis
  MIC: 329 µM (≈ 128 µg/mL)
Candida tropicalis
  MIC: 1320 µM (≈ 513 µg/mL)
Aspergillus fumigatus
  MIC: 658 µM (≈ 256 µg/mL)
Escherichia coli [7]
  MIC: 658 µM (≈ 256 µg/mL)
Pseudomonas aeruginosa [8]
  MIC: 658 µM (≈ 256 µg/mL)
Escherichia coli [9]
  MIC: 658 µM (≈ 256 µg/mL)
Pseudomonas aeruginosa [10]
  MIC: 658 µM (≈ 256 µg/mL)
Klebsiella pneumoniae
  MIC: 165 µM (≈ 64.3 µg/mL)
Acinetobacter baumannii
  MIC: 658 µM (≈ 256 µg/mL)

## Nc1nc(-c2c[nH]c3cc(F)c(F)cc3c2=O)cs1
Staphylococcus aureus [1]
  MIC: 459 µM (≈ 128 µg/mL)
Staphylococcus aureus [2]
  MIC: 459 µM (≈ 128 µg/mL)
Staphylococcus aureus [3]
  MIC: 459 µM (≈ 128 µg/mL)
Staphylococcus aureus [4]
  MIC: 459 µM (≈ 128 µg/mL)
Enterococcus faecalis
  MIC: 918 µM (≈ 256 µg/mL)
Candida albicans [5]
  MIC: 229 µM (≈ 64 µg/mL)
Candida albicans [6]
  MIC: 229 µM (≈ 64 µg/mL)
Candida parapsilosis
  MIC: 459 µM (≈ 128 µg/mL)
Candida tropicalis
  MIC: 459 µM (≈ 128 µg/mL)
Aspergillus fumigatus
  MIC: 229 µM (≈ 64 µg/mL)
Escherichia coli [7]
  MIC: 459 µM (≈ 128 µg/mL)
Pseudomonas aeruginosa [8]
  MIC: 459 µM (≈ 128 µg/mL)
Escherichia coli [9]
  MIC: 459 µM (≈ 128 µg/mL)
Pseudomonas aeruginosa [10]
  MIC: 459 µM (≈ 128 µg/mL)
Klebsiella pneumoniae
  MIC: 918 µM (≈ 256 µg/mL)
Acinetobacter baumannii
  MIC: 918 µM (≈ 256 µg/mL)

## Nc1nc(-c2c[nH]c3cc(Cl)c(F)cc3c2=O)cs1
Staphylococcus aureus [1]
  MIC: 217 µM (≈ 64.2 µg/mL)
Staphylococcus aureus [2]
  MIC: 434 µM (≈ 128 µg/mL)
Staphylococcus aureus [3]
  MIC: 868 µM (≈ 257 µg/mL)
Staphylococcus aureus [4]
  MIC: 1740 µM (≈ 513 µg/mL)
Enterococcus faecalis
  MIC: 868 µM (≈ 257 µg/mL)
Candida albicans [5]
  MIC: 109 µM (≈ 32.2 µg/mL)
Candida albicans [6]
  MIC: 217 µM (≈ 64.2 µg/mL)
Candida parapsilosis
  MIC: 1740 µM (≈ 513 µg/mL)
Candida tropicalis
  MIC: 217 µM (≈ 64.2 µg/mL)
Aspergillus fumigatus
  MIC: 217 µM (≈ 64.2 µg/mL)
Escherichia coli [7]
  MIC: 217 µM (≈ 64.2 µg/mL)
Pseudomonas aeruginosa [8]
  MIC: 868 µM (≈ 257 µg/mL)
Escherichia coli [9]
  MIC: 434 µM (≈ 128 µg/mL)
Pseudomonas aeruginosa [10]
  MIC: 868 µM (≈ 257 µg/mL)
Klebsiella pneumoniae
  MIC: 868 µM (≈ 257 µg/mL)
Acinetobacter baumannii
  MIC: 868 µM (≈ 257 µg/mL)
